Experimental data published in article PMC7323874, “Vancomycin Resistance Is Overcome by Conjugation of Polycationic Peptides” (Angewandte Chemie (International Ed. in English), 2020).

Legend:
[1] = Molecular imaging (PET, scintigraphy) and biodistribution of radiolabeled compounds; assay type: in vivo, female Wistar rats; conditions: for scintigraphy, distribution and excretion: i.v.
Method: Biodistribution and pharmacokinetic studies
The biodistribution and pharmacokinetic studies were performed with radiolabeled (124I/125I) compounds. For this radiolabeling strategy, a D-tyrosine-modified derivative was synthesized, which enabled the […] substitution. The D-tyrosine was located at the N-terminus of the respective peptide. Vancomycin was radiolabeled without any further structural modification. For radiolabeling, a 1 mM stock solution of phosphate buffer/dimethyl sulfoxide was prepared as described previously by Uhl et al.12 The required amount of radioactive iodine-124 (124I) or rather iodine-125 (125I) was added to a mixture of 25 µl of the stock solution and 25 µl of a phosphate buffer (0.25 mM; pH 7.5). Radiolabeling was performed using the chloramine T method as previously described by Crim et al.13 The labeled compound was purified by semi-preparative HPLC. Analysis was done by radio-HPLC (Agilent 1100 series) using a Chromolith® Performance RP-18e, 100–3 mm column applying a linear gradient of 0.1% TFA in water (eluent A) to 0.1% TFA in acetonitrile (eluent B) within 5 min; flow rate 2 ml/min; UV absorbance λ = 214 nm; γ-detection. The animal trials were approved by the Animal Care and Use committees at the Regierungspräsidium Karlsruhe, Germany. Adult, female, Wistar rats (200 – 250 g) were purchased from Janvier Labs (Le Genest-Saint-Isle, France). The animals were anaesthetized by isoflurane inhalation and appropriate amounts of the 124I/125I labelled peptides, dissolved in 100 µl of 0.9% NaCl were injected into the tail vein. For PET-imaging, an Inveon small animal PET scanner (Siemens) was used. Therefore, the animals were sacrificed 10 min or 60 min after injection of the radiolabeled compound and images were taken afterwards. The scintigraphic images were obtained using a γ-camera (Gamma Imager, Biospace, France). Cumulative images from 0–10 min, 60–70 min and 120–130 min after injection, were taken. For the biodistribution studies, the animals were sacrificed at certain time points, the organs were removed and weighed and the radioactivity of each sample was measured using a Cobra Auto γ-Counter, (Packard Bioscience, USA) in comparison with standards. The tissue-associated activity was related to the total injected dose (ID) and expressed as a percentage of the total injected dose per gram of tissue (%ID/g).
In vivo infection experiments
Animal studies were approved by the local government of Lower Franconia, Germany (approval number 55.2-2532-2-57) and performed in strict accordance with the guidelines for animal care and experimentation of German Animal Protection Law and the DIRECTIVE […]
For the in vivo experiments, we applied S. aureus strain USA300 LAC* lux, which was constructed by transducing the luxABCDE operon from S. aureus Xen29 (PerkinElmer, Waltham, MA, USA) with phage φ11 into S. aureus LAC* (AH2163).14 Overnight cultures of S. aureus USA300 LAC* lux in BHI medium were diluted to a final OD600 nm of 0.05 in 50 ml fresh BHI medium and grown for 3.5 hours at 37 °C. After centrifugation, the cell pellet was resuspended in BHI with 20 % glycerol, aliquoted and stored at -80 °C. For the generation of in vivo infection inocula, aliquots were thawed and washed twice with PBS. The desired bacterial concentration (5 x 10^7 CFU/100 µl) was then adjusted based on the respective OD600 nm values. A sample of the infection inoculum was plated on TSB agar plates in order to control the infection dose.
Female Balb/c mice (6 weeks, Janvier Labs, Le Genest-Saint-Isle, France) were used for all experiments.
Mice were infected by intravenous application of the bacterial inoculum via the tail vein. Treatment started at 2 hours p.i. and following doses were applied every 12 hours. The vancomycin group received 30 mg/kg body weight/ per day, the FU002 group received 56.4 mg/kg body weight/per day, the control group received equal amounts of sterile PBS at the respective time points. The mice were […]

[2] = test system: Staphylococcus aureus USA300 LAC (MRSA) infected mice; assay: In vivo efficacy model in infected mice; conditions: female Balb/c mice, FU002 56.4 mg/kg body weight per day
[3] = test system: Staphylococcus aureus NCTC 10442; assay: Blocking experiments with Nα,Nε-diacetyl-Lys-D-Ala-D-Ala in microdilution; assay type: cell-based; conditions: at least 100-fold excess of Nα,Nε-Diacetyl-Lys-D-Ala-D-Ala, pre-incubation minimum 1 hour at room temperature
Method: Antimicrobial testing – Microdilution
Antimicrobial testing was performed according to CLSI and EUCAST guidelines in microdilution.8-10 Therefore, all tested substances as well as controls were dissolved in water in different concentrations and serially diluted in MHB II (cation adjusted) on the 96-well plate. A logarithmic growing, overnight culture of the respective bacterial strain was used and adjusted to a McFarland corresponding to 1 × 10^8 cfu/ml. Afterwards the bacterial suspension was diluted to 1 ×10^6 cfu/ml and loaded on the 96-well polypropylene plates, resulting in a final bacterial concentration of 5 × 10^5 cfu/ml. After an incubation at 35 ± 1 °C for 18-20 hours (re-controlled after 24 hours) the MIC was determined as the lowest concentration without visible growth as described previously.11 For direct comparison of the tested substances, all results were calculated in mg/ml and mol/ml afterwards.
For blocking experiments with NΑ,NΕ-DIACETYL-LYS-D-ALA-D-ALA the tested substances were incubated directly on the dilution plate with at least 100-fold excess of Nα,Nε-Diacetyl-Lys-D-Ala-D-Ala for a minimum of 1 hour at room temperature. Afterwards, the procedure was performed as described above. As further control substance, the glycopeptide antibiotic teicoplanin was evaluated. […] Resistance development in S. aureus was determined by passaging bacteria in increasing amounts of vancomycin, FU002 or, as control, fusidic acid. In principle, tubes with twofold dilutions of the compounds in 1 ml Muller Hinton broth were inoculated 1:100 with bacterial suspension. The tubes were then incubated for 24 h at 37 °C under shaking. After each passage, the tube with the highest compound concentration showing bacterial growth was used to inoculate the tubes of the next passage (1:100). The tube with the lowest compound concentration showing no growth was defined as the passage MIC. […]
For the validation of possible side effects provoked by the conjugates, the cytotoxic effect of the lead candidate FU002 on human cells was assessed in a colorimetric viability assay. […]

[4] = 125I-labeled compounds (FU002 as 125I-FU002y), 10 min post injection
[5] = 125I-labeled compounds (FU002 as D-Tyr derivative), 60 min post injection

SMILES | scintigraphy, distribution and excretion [1, 4] | scintigraphy, distribution and excretion [1, 5] | biodistribution, organ uptake ([1]; 125I-labeled, 10 min post injection, compared with vancomycin) | biodistribution, retention in organ ([1]; 125I-labeled, after 1 hour, compared with vancomycin) | bacterial burden, colony forming units (CFU) in the liver ([2]; day 4 post infection, p < 0.05, Kruskal-Wallis test) | body weight of infected mice ([2]; i.v. infection, doses every 12 hours, start 2 hours p.i.) | effect of D-Ala-D-Ala binding motif on antibiotic activity [3] | PET imaging, distribution and excretion ([1]; 124I-labeled compounds, i.v. tail vein, 10 min post injection)
CC(C)C[C@H](C(=O)N[C@H]1C(=O)N[C@@H](CC(N)=O)C(=O)N[C@H]2C(=O)N[C@H]3C(=O)N[C@H](C(=O)N[C@H](C(=O)O)c4cc(O)cc(O)c4-c4cc3ccc4O)[C@H](O)c3ccc(c(Cl)c3)Oc3cc2cc(c3O[C@@H]2O[C@H](CO)[C@@H](O)[C@H](O)[C@H]2O[C@H]2C[C@](C)(N)[C@H](O)[C@H](C)O2)Oc2ccc(cc2Cl)[C@H]1O)N(C)C(=O)C1CCC(CN2C(=O)CC(SC[C@H](NC(=O)[C@H](CCCNC(=N)N)NC(=O)[C@H](CCCNC(=N)N)NC(=O)[C@H](CCCNC(=N)N)NC(=O)[C@H](CCCNC(=N)N)NC(=O)[C@H](CCCNC(=N)N)NC(=O)[C@@H](N)CCCNC(=N)N)C(N)=O)C2=O)CC1 (some centres unmarked) [FU002] | directs in the liver and the kidneys | much slower excretion | much higher organ uptake | remains much longer in the corresponding organ | significant reduction of bacterial burden | No infection‐related body weight loss | preserves its activity | 
CN[C@H](CC(C)C)C(=O)N[C@H]1C(=O)N[C@@H](CC(N)=O)C(=O)N[C@H]2C(=O)N[C@H]3C(=O)N[C@H](C(=O)N[C@H](C(=O)O)c4cc(O)cc(O)c4-c4cc3ccc4O)[C@H](O)c3ccc(c(Cl)c3)Oc3cc2cc(c3O[C@@H]2O[C@H](CO)[C@@H](O)[C@H](O)[C@H]2O[C@H]2C[C@](C)(N)[C@H](O)[C@H](C)O2)Oc2ccc(cc2Cl)[C@H]1O [vancomycin] | fast, renal excretion | almost completely excreted and only found in the bladder |  |  |  |  | suppresses the antibiotic activity | renal excretion
